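Tested at 5 concentrations; 48 h exposure; 96-well plates; endpoints linearly interpolated, else capped at highest concentration. At the GI50, growth is halved.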 The source made the active and inactive calls. No stated cut-off is given here; in the data, active = GI50 up to about 1.1 µM and inactive = higher.
Assays:
Assay in all cases: NCI anticancer screen, dose series, 48 h
MDA-N = tested on: MDA-N
SK-MEL-5 = tested on: SK-MEL-5
SF-295 = tested on: SF-295
M14 = tested on: M14
NCI-H23 = tested on: NCI-H23
SW-620 = tested on: SW-620
A549 = tested on: A549
Malme-3M = tested on: Malme-3M
K562 = tested on: K562
HCT-15 = tested on: HCT-15
DU-145 = tested on: DU-145
HT-29 = tested on: HT-29
OVCAR-8 = tested on: OVCAR-8
MOLT-4 = tested on: MOLT-4
RPMI-8226 = tested on: RPMI-8226
ACHN = tested on: ACHN
OVCAR-4 = tested on: OVCAR-4
SK-MEL-28 = tested on: SK-MEL-28
OVCAR-5 = tested on: OVCAR-5
HOP-92 = tested on: HOP-92

Compound	GI50 (MDA-N)	GI50 (SK-MEL-5)	GI50 (SF-295)	GI50 (M14)	GI50 (NCI-H23)	GI50 (SW-620)	GI50 (A549)	GI50 (Malme-3M)	GI50 (K562)	GI50 (HCT-15) [µM]	GI50 (DU-145)	GI50 (HT-29)	GI50 (OVCAR-8)	GI50 (MOLT-4)	GI50 (RPMI-8226)	GI50 (ACHN)	GI50 (OVCAR-4)	GI50 (SK-MEL-28)	GI50 (OVCAR-5)	GI50 (HOP-92)
CCNC(=S)NNC(=O)C12CC3CC(CC(C3)C1)C2	> 100 µM (inactive)	> 100 µM (inactive)	> 100 µM (inactive)	> 100 µM (inactive)	> 100 µM (inactive)	> 100 µM (inactive)	> 100 µM (inactive)	> 100 µM (inactive)	> 100 µM (inactive)	> 100	> 100 µM (inactive)	> 100 µM (inactive)	> 100 µM (inactive)	> 100 µM (inactive)	> 100 µM (inactive)	> 100 µM (inactive)	> 100 µM (inactive)	> 100 µM (inactive)	> 100 µM (inactive)	–
CCOC(=O)Nc1[nH]cc(-c2ccccc2)c1C#N	> 100 µM (inactive)	> 100 µM (inactive)	> 100 µM (inactive)	> 100 µM (inactive)	> 100 µM (inactive)	> 100 µM (inactive)	> 100 µM (inactive)	> 100 µM (inactive)	> 100 µM (inactive)	> 100	> 100 µM (inactive)	> 100 µM (inactive)	> 100 µM (inactive)	> 100 µM (inactive)	> 100 µM (inactive)	> 100 µM (inactive)	> 100 µM (inactive)	> 100 µM (inactive)	> 100 µM (inactive)	–
CC(=O)OC1OC(c2ccoc2)C[C@@]12C1CCC3O[C@]3(C)[C@]1(C)[C@H](OC(C)=O)[C@H](OC(C)=O)[C@H]2C (stereo partly specified)	> 37.5 µM (inactive)	> 37.5 µM (inactive)	> 37.5 µM (inactive)	> 37.5 µM (inactive)	30.3 µM (inactive)	> 37.5 µM (inactive)	> 37.5 µM (inactive)	> 37.5 µM (inactive)	> 37.5 µM (inactive)	> 37.5	–	> 37.5 µM (inactive)	> 37.5 µM (inactive)	18.5 µM (inactive)	–	> 37.5 µM (inactive)	> 37.5 µM (inactive)	> 37.5 µM (inactive)	> 37.5 µM (inactive)	> 37.5 µM (inactive)
c1ccc2/c3[nH]/c(c2c1)=N\c1ccc(cc1)-c1nc2cc(ccc2o1)/N=c1/[nH]/c(c2ccccc12)=N/c1ccc2nc(oc2c1)-c1ccc(cc1)\N=3	> 100 µM (inactive)	> 100 µM (inactive)	> 100 µM (inactive)	> 100 µM (inactive)	> 100 µM (inactive)	> 100 µM (inactive)	–	–	> 100 µM (inactive)	> 100	> 100 µM (inactive)	49.4 µM (inactive)	–	> 100 µM (inactive)	–	> 100 µM (inactive)	> 100 µM (inactive)	> 100 µM (inactive)	> 100 µM (inactive)	–
CC(=O)Oc1ccc2c(c1)O/C(=C\c1ccc(O)cc1)C2=O	> 100 µM (inactive)	> 100 µM (inactive)	> 100 µM (inactive)	> 100 µM (inactive)	> 100 µM (inactive)	> 100 µM (inactive)	> 100 µM (inactive)	–	> 100 µM (inactive)	> 100	> 100 µM (inactive)	–	> 100 µM (inactive)	> 100 µM (inactive)	> 100 µM (inactive)	> 100 µM (inactive)	> 100 µM (inactive)	> 100 µM (inactive)	–	–
COC(=O)C1CC2(CCC1=O)Cc1ccccc1C2=O (stereo unspecified)	> 100 µM (inactive)	> 100 µM (inactive)	82.2 µM (inactive)	> 100 µM (inactive)	> 100 µM (inactive)	> 100 µM (inactive)	> 100 µM (inactive)	> 100 µM (inactive)	42.3 µM (inactive)	> 100	> 100 µM (inactive)	> 100 µM (inactive)	> 100 µM (inactive)	48.5 µM (inactive)	65.5 µM (inactive)	> 100 µM (inactive)	> 100 µM (inactive)	> 100 µM (inactive)	> 100 µM (inactive)	–
